Experimental data as given in patent US20020091095A1, “Modulation of Fas and FasL expression” (priority 1999, published 2002).

Experiments:
Fas [1] = assay: Fas expression at the cell surface by flow cytometry, Jurkat cells; format: cell-based; conditions: Jurkat human leukemia T cells, 100 μg/ml sequence, 48 h, treated vs control cells
Experimental: (§1) Cancer cells and PBMCs were seeded in 6 well flat-bottom microplates and were maintained at 37° C. in a 5% CO2 atmosphere. Unless stated otherwise, 2×10^5 cells/ml were incubated for 48 h with 0 μg/ml (control) or 100 μg/ml ([…]) (treated) of the sequences.
(§2) Fas and FasL expression were measured by flow cytometry using anti-Fas FITC-conjugated monoclonal antibodies and anti-FasL PE-conjugated monoclonal antibodies in a FACScalibur Flow Cytometer (Becton Dickinson, San Jose, Calif., USA) using the CELLQuest program (Becton Dickinson).
(§3) Results are expressed as percentage (%) increase in the expression of Fas and of FasL measured on treated cells compared to control cells.
(§4) Jurkat human leukemia T cells are an atypical multi-drug resistant human suspension tumor cell model.

FasL [2] = assay: FasL expression at the cell surface by flow cytometry, Jurkat cells; format: cell-based; conditions: Jurkat human leukemia T cells, 100 μg/ml sequence, 48 h, treated vs control cells
Experimental: as §1, §2, §3, §4

FasL [3] = assay: FasL expression at the cell surface by flow cytometry, PBMCs; format: cell-based, human; conditions: 100 μg/ml sequence, 48 h, treated vs control cells
Experimental: Peripheral blood mononuclear cells (hereinafter, “PBMCs”) were isolated from human blood by Ficoll-Hypaque (Amersham Pharmacia Biotech, Baie d'Urfée, Québec, Canada) density gradient centrifugation.
as §1, §2, §3

FasL [4] = assay: FasL expression at the cell surface by flow cytometry, T-24 cells; format: cell-based, human; conditions: T-24 bladder cancer cells, 100 μg/ml sequence, 48 h, treated vs control cells
Experimental: as §1, §2, §3
T-24 bladder cancer cells are a p53 mutated human cell line T-24 cells (1.0×10^5 cells/ml) were incubated with the 6 base sequences shown in Table 4.

FasL [5] = assay: FasL expression at the cell surface by flow cytometry, UMUC-3 cells; format: cell-based, human; conditions: UMUC-3 bladder cancer cells, 100 μg/ml sequence, 48 h, treated vs control cells
Experimental: as §1, §2, §3
UMUC-3 bladder cancer cells are a P-glycoprotein overexpressing human cell line.

Fas [6] = assay: Fas expression at the cell surface by flow cytometry, OVCAR-3 cells; format: cell-based, human; conditions: OVCAR-3 ovarian cancer cells, 100 μg/ml sequence, 48 h, treated vs control cells
Experimental: as §1, §2, §3
OVCAR-3 ovarian cancer cells are a p53 mutated, p21/waf-1/Cip deleted, metastatic human solid tumor model.

FasL [7] = assay: FasL expression at the cell surface by flow cytometry, SK-OV-3 cells; format: cell-based, human; conditions: SK-OV-3 ovarian cancer cells, 100 μg/ml sequence, 48 h, treated vs control cells
Experimental: as §1, §2, §3
SK-OV-3 ovarian cancer cells are a p53 mutated, p21/waf-1/Cip deleted, p15^ink4B,p16^ink4 deleted metastatic human solid tumor model.

Fas [8] = assay: Fas expression at the cell surface by flow cytometry, LNCaP cells; format: cell-based, human; conditions: LNCaP prostate cancer cells, 100 μg/ml sequence, 48 h, treated vs control cells
Experimental: as §1, §2, §3
LNCaP prostate cancer cells are a TGF-beta 1 receptor negative, […], metastatic human solid tumor model.

Fas [9] = assay: Fas expression at the cell surface by flow cytometry, MCF-7 cells; format: cell-based, human; conditions: MCF-7 breast cancer cells, 100 μg/ml sequence, 48 h, treated vs control cells
Experimental: as §1, §2, §3
MCF-7 human breast cancer cells are a caspase-3 negative, estrogen-dependent human solid tumor model.

EAE = EAE in (SJL/J×PL/J) F1 mice induced with myelin basic protein; format: in vivo
Experimental: Female (SJL/J×PL/J) F1 mice are injected subcutaneously in both femoral regions with an emulsion containing 0.5 mg of myelin basic protein (MBP) mixed with complete Freund's adjuvant. After 24 h, 400 ng of Bordetella pertussis toxin is administered intraperitoneally. On the day of onset (day 0), group 1 mice receive saline, group 2 mice receive 1, 10 or 100 mg/kg of SEQ. ID NO:5, group 3 mice receive 1, 10 or 100 mg/kg of SEQ. ID NO:16, group 4 mice receive 1, 10 or 100 mg/kg of SEQ. ID NO:17, group 5 mice receive 1, 10 or 100 mg/kg of SEQ. ID NO: 18, group 6 mice receive anti-Fas antibodies, group 7 mice receive 1, 10 or 100 mg/kg of SEQ. ID NO:5 +anti-Fas antibodies, group 8 mice receive 1, 10 or 100 mg/kg of SEQ. ID NO:16 +anti-Fas antibodies, group 9 receive 1, 10 or 100 mg/kg of SEQ. ID NO:17 +anti-Fas antibodies, group 10 mice receive 1, 10 or 100 mg/kg of SEQ. ID NO: 18 +anti-Fas antibodies for 3 days by intracistemal administration (20 μg/day). In these different groups, anti-Fas antibodies are administered at any dose in the range of about 0.003 to about 0.3 mg/kg. […] The efficacy of the SEQ. ID NO:5, the SEQ. ID NO: 16 and the SEQ. ID NO: 17 is dose-dependent.

## GGGTGG [SEQ ID NO:5]
Fas [1]
  % INCREASE Fas: 150%
FasL [2]
  % INCREASE FasL: 145%
FasL [3]
  % INCREASE FasL: −20%
FasL [4]
  % INCREASE FasL: 13%
FasL [5]
  % INCREASE FasL: 143%
Fas [6]
  % INCREASE Fas: 43%
FasL [7]
  % INCREASE FasL: −31%
Fas [8]
  % INCREASE Fas: 15%
Fas [9]
  % INCREASE Fas: 93%
EAE; 1, 10 or 100 mg/kg
  efficacy, dose dependence: dose-dependent
EAE; sequence 1, 10 or 100 mg/kg + anti-Fas antibodies, for 3 days
  progression of EAE: least progression of EAE
